System: melanocytes
Test: Proliferation inhibitory test against melanocyte caused by ultraviolet irradiation
Format: cell-based
Conditions: cultured melanocytes, compound at 1 μg/ml
Method: Proliferation Inhibitory Test Against Melanocyte Caused by Ultraviolet Irradiation
Melanocytes were cultured according to the authentic method, and the proliferation of melanocytes in the presence or absence of test drugs under the ultraviolet irradiation was measured.

O=C(Nc1cc(C(F)(F)F)cc(C(F)(F)F)c1)c1cc(Cl)ccc1O [Compound 50, N-[3,5-bis(trifluoromethyl)phenyl]-5-chloro-2-hydroxybenzamide]
inhibition of transformation and proliferation of melanocyte under ultraviolet irradiation: almost completely inhibited

Source: US20070042997A1, “Medicament for treatment of dermal pigmentation” (priority 2003, published 2007)
